Measurements published in US20070293486A1, “Alpha-Keto Carbonyl Calpain Inhibitors” (SANTHERA PHARMACEUTICALS (SCHWEIZ) AG, priority 2004, published 2007).

System: Primary fibroblasts from donors with Friedreich Ataxia (FRDA)
Experiment: BSO Assay (cell viability under BSO-induced oxidative stress)
Format: cell-based
Conditions: Homo sapiens, Fibroblast
Procedure: Primary fibroblasts were derived from donors with molecular diagnosis for Friedreich Ataxia (FRDA) and control donors with no mitochondrial disease. Cell lines were obtained from Coriell Cell Repositories (Camden, N.J.; catalog numbers GM04078, GM08402 and GM08399 respectively). All cell types were diagnosed on the molecular level for intronic […] triplet repeat length of at least 400-450 repeats using a PCR-based method. […] Cell viability was measured after the first signs of toxicity appeared in the BSO-treated controls (typically after 16 to 48 h). […] Fluorescence intensity was measured with a Gemini Spectramax XS spectrofluorimeter (Molecular Devices, Sunnyvale, Calif.) using excitation and emission wavelengths of 485 nm and 525 nm respectively.

CCNC(=O)C(=O)[C@H](Cc1ccc(Cl)cc1)NC(=O)[C@@H](NC(=O)[C@H](Cc1ccccc1)NC(=O)CCCCC1CCS[S+]1[O-])C(C)C (stereo partly shown) [Example 2]
EC50: 800 nM
